Laboratory results taken from patent publication US20240317706A1, “COMPOUNDS THAT MEDIATE PROTEIN DEGRADATION AND METHODS OF USE THEREOF” (Monte Rosa Therapeutics, Inc., priority 2021, published 2024).

Experiments:
CDK2 = biological target: T1, CDK2 (Homo sapiens, UniProt P24941); test: NanoBiT assay (CDK2 degradation); assay type: cell-based; conditions: HEK293, HEK293 clonal line with CRISPR KI HiBiT tag on CDK2, Endurazine live cell substrate, 24 hours
T1 construct: HEK293 clonal lines with CRISPR KI HiBiT tag on CDK2 proteins; host or cells: HEK293 clonal line, CRISPR knock-in HiBiT-CDK2, stably expressing LgBiT
Method: HEK293 clonal lines with CRISPR KI HiBiT tag on either CDK2 proteins and stably expressing LgBiT protein were obtained from Promega (Madison, WI). Cells were plated at 5000 cells per well using Multiflo (BioTek) in 384-well white solid bottom plates (Corning, 3570BC) in 25 ul volume in DMEM media (DMEM, high glucose, HEPES, no phenol red (ThermoFisher Scientific, 21063029)) containing 10% FBS (Corning, 35-075-CV), 1% Penicillin/Streptomycin ((ThermoFisher Scientific, 15140-122), and 1% Endurazine (Nano-Glo Endurazine Live Cell Substrate (Promega, N2571)). Cells were incubated for 16 hours at 37 C, 5% CO2. 75 nL of a compound at 30 μM were dosed into the plate using an Echo® 650 liquid handler (Labcyte). Cells were incubated at 37° C., 5% CO2 for 24 hours and then signal was read on a Pherastar FSX using “LUM plus” optic module.
Analysis was performed in Scinamic (Scinamic, Cambridge, MA). Luminescence response (R) was calculated by the formula: response=100*(S−N)/(P−N) where S is the signal of the well, N and P the mean negative and positive control values respectively of the same plate. The luminescence response was then fitted in Scinamic using a 3-parameter agonist logistic fit (hillslope=1, EC50>0, top/bottom unconstrained).

CRBN-DDB1 = CRBN-DDB1 (Homo sapiens, UniProt Q96SW2); test: Compound binding to CRBN by HTRF assay; conditions: CRBN-DDB1 2.5 nM, Cy5-Thalidomide 100 nM, 30 min; Ki from geometric mean IC50 by Cheng-Prustoff transformation
CRBN-DDB1, sequence (Q96SW2 whole entry): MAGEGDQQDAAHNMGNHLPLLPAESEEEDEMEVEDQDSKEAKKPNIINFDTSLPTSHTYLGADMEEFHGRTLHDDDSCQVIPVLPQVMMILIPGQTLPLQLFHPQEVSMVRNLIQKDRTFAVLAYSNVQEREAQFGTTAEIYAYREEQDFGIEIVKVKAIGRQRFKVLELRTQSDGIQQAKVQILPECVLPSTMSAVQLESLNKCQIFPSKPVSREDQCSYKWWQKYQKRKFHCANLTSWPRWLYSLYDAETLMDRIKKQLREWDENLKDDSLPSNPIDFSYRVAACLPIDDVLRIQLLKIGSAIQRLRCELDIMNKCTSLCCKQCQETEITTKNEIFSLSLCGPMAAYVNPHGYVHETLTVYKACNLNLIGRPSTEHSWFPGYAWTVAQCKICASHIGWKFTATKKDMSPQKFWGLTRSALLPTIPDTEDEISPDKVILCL
CRBN-DDB1, sequence (Q16531 whole entry partner): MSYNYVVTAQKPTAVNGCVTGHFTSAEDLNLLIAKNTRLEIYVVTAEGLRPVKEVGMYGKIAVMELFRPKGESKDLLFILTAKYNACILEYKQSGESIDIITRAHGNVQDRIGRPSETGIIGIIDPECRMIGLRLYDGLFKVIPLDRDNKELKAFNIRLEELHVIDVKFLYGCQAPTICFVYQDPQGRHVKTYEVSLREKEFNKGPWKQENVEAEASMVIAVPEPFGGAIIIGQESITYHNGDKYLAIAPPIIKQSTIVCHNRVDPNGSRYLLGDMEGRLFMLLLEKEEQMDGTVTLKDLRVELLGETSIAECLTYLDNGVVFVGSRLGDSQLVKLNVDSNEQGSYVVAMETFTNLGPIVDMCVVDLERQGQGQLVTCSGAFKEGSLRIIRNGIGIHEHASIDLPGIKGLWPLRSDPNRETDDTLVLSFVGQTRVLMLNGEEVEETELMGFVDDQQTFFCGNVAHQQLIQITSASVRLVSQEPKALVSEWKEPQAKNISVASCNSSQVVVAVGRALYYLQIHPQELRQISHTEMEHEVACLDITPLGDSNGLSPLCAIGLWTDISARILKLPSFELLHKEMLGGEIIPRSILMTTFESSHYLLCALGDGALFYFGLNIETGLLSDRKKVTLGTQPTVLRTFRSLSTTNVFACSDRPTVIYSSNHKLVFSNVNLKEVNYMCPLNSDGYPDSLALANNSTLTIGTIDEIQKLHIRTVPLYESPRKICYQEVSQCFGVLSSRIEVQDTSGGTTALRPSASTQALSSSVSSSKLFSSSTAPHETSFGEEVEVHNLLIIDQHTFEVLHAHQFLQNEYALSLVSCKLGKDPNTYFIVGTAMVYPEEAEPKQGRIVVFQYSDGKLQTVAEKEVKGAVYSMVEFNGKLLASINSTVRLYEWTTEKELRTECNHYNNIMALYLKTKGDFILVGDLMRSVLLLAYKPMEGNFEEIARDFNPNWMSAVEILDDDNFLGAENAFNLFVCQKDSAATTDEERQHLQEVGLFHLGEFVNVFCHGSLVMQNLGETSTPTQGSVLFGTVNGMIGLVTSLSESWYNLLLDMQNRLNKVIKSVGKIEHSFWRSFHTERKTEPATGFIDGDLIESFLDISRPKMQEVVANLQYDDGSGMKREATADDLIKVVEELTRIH
Method: Compound activity was monitored in a Homogenous Time-Resolved Fluorescence (HTRF) assay using 1-[5-({2-[2-(2-{[2-(2,6-dioxopiperidin-3-yl)-1,3-dioxo-2,3-dihydro-1H-isoindol-4-yl]oxy}acetamido)ethoxy]ethyl}carbamoyl)pentyl]-3,3-dimethyl-2-[(1E,3E)-5-[(2E)-1,3,3-trimethyl-5-sulfo-2,3-dihydro-1H-indol-2-ylidene]penta-1,3-dien-1-yl]-3H-indol-1-ium-5-sulfonate as a fluorescent probe. Biochemical assays were conducted in Greiner white 384 well HiBase plates (Cat. No 784075-25) in 10 μL total volume. A one pot detection solution of CRBN-DDB1 (2.5 nM), Anti-His Terbium Cryptate Gold (1×, PerkinElmer Cat. #: 61HI2TLB), and Cy5-Thalidomide (100 nM, Tenova Cat.: T52461) was prepared in 20 mM HEPES, 20 mM NaCl, 0.2 mM TCEP, 0.2 mM EDTA, and 0.005% Tween20 was dispensed to each assay plate. Compounds were stored in dry, ambient temperatures at 10 mM. A 10-point, 1:3 dilution series was prepared from 10 mM stock concentrations in Echo-compatible LDV plates. 10 nL of each compound dilution series was dispensed into assays wells using an Echo 650 (Labcyte inc. USA). 10 nL of 10 mM Lenalidomide was transferred into the active-control wells for the assay and 10 nL of DMSO was transferred into the neutral-control wells. The assay was then allowed to incubate for 30 min at ambient temperature after transferring compound. Plate measurements were taken on a Pherastar FSX (BMG Labtech, Germany) using the HTRF Red filter (Ex. 337 nm, em1: 620 nm, em2: 665 nm) (Flashes: 50, Integration time: 60-400 us, Z-height: 10 mm, Ratio-multiplier: 10,000). The HTRF signal was then subsequently normalized to the neutral and active controls. Analysis and IC50 values were derived using KNIME analytics (KNIME Zurich) transformation and fitting within Collaborative Drug Discovery (Collaborative Drug Discovery USA). Ki was derived from the geometric mean of the IC50 values using the Cheng-Prustoff transformation.

In the case of `CC(C)(C)OC(=O)N1CC(COC(=O)NCc2ccc3c(c2)C(=O)N(C2CCC(=O)NC2=O)C3)C1` (centres unmarked) [Compound 45, tert-butyl 3-{[({[2-(2,6-dioxopiperidin-3-yl)-3-oxo-2,3-dihydro-1H-isoindol-5-yl]methyl}carbamoyl)oxy]methyl}azetidine-1-carboxylate], the Dmax (CDK2) is reported as ≤ 10% and the Ki (CRBN-DDB1) is reported as 100 to 1000 nM.
`COCC(OC(=O)NCc1ccc2c(c1)C(=O)N(C1CCC(=O)NC1=O)C2)C1CC1` (centres unmarked) [Compound 49, 1-cyclopropyl-2-methoxyethyl N-{[2-(2,6-dioxopiperidin-3-yl)-3-oxo-2,3-dihydro-1H-isoindol-5-yl]methyl}carbamate] gave a Dmax (CDK2) of 10 to 50% and a Ki (CRBN-DDB1) of 100 to 1000 nM.
With `O=C1CCC(N2Cc3ccc(CNC(=O)OCC4CCS(=O)(=O)C4)cc3C2=O)C(=O)N1` (centres unmarked) [Compound 51, (1,1-dioxo-1lambda6-thiolan-3-yl)methyl N-{[2-(2,6-dioxopiperidin-3-yl)-3-oxo-2,3-dihydro-1H-isoindol-5-yl]methyl}carbamate] the Dmax (CDK2) was ≤ 10% and the Ki (CRBN-DDB1) was ≤ 100 nM.
`C[C@H](CC1CC1)OC(=O)NCc1ccc2c(c1)C(=O)N(C1CCC(=O)NC1=O)C2` (stereo partly drawn) [Compound 56, (2R)-1-cyclopropylpropan-2-yl N-{[2-(2,6-dioxopiperidin-3-yl)-3-oxo-2,3-dihydro-1H-isoindol-5-yl]methyl}carbamate] showed a Dmax (CDK2) of 10 to 50% and a Ki (CRBN-DDB1) of 100 to 1000 nM.
With `CC(COC(=O)NCc1ccc2c(c1)C(=O)N(C1CCC(=O)NC1=O)C2)C1CCC1` (centres unmarked) [Compound 58, 2-cyclobutylpropyl N-{[2-(2,6-dioxopiperidin-3-yl)-3-oxo-2,3-dihydro-1H-isoindol-5-yl]methyl}carbamate] the Dmax (CDK2) was ≤ 10% and the Ki (CRBN-DDB1) was ≤ 100 nM.
For `CC12COC(COC(=O)NCc3ccc4c(c3)C(=O)N(C3CCC(=O)NC3=O)C4)(C1)C2` (centres unmarked) [Compound 72, {4-methyl-2-oxabicyclo[2.1.1]hexan-1-yl}methyl N-{[2-(2,6-dioxopiperidin-3-yl)-3-oxo-2,3-dihydro-1H-isoindol-5-yl]methyl}carbamate], the Dmax (CDK2) was ≤ 10% and the Ki (CRBN-DDB1) was 100 to 1000 nM.
`O=C1CCC(N2Cc3ccc(CNC(=O)OCC4(C5CC5)CC4)cc3C2=O)C(=O)N1` (centres unmarked) [Compound 77, {[1,1′-bi(cyclopropane)]-1-yl}methyl N-{[2-(2,6-dioxopiperidin-3-yl)-3-oxo-2,3-dihydro-1H-isoindol-5-yl]methyl}carbamate] gave a Dmax (CDK2) of 10 to 50% and a Ki (CRBN-DDB1) of 100 to 1000 nM.
In the case of `CC1(C)COC1COC(=O)NCc1ccc2c(c1)C(=O)N(C1CCC(=O)NC1=O)C2` (centres unmarked) [Compound 79, (3,3-dimethyloxetan-2-yl)methyl N-{[2-(2,6-dioxopiperidin-3-yl)-3-oxo-2,3-dihydro-1H-isoindol-5-yl]methyl}carbamate], the Dmax (CDK2) is reported as ≤ 10% and the Ki (CRBN-DDB1) is reported as 100 to 1000 nM.
In the case of `O=C1CCC(N2Cc3ccc(CNC(=O)OCC4(CC5CC5)CC4)cc3C2=O)C(=O)N1` (centres unmarked) [Compound 80, [1-(cyclopropylmethyl)cyclopropyl]methyl N-{[2-(2,6-dioxopiperidin-3-yl)-3-oxo-2,3-dihydro-1H-isoindol-5-yl]methyl}carbamate], the Dmax (CDK2) is reported as ≤ 10% and the Ki (CRBN-DDB1) is reported as 100 to 1000 nM.
For `CC1(COC(=O)NCc2ccc3c(c2)C(=O)N(C2CCC(=O)NC2=O)C3)CS(=O)(=O)C1` (centres unmarked) [Compound 81, (3-methyl-1,1-dioxo-1lambda6-thietan-3-yl)methyl N-{[2-(2,6-dioxopiperidin-3-yl)-3-oxo-2,3-dihydro-1H-isoindol-5-yl]methyl}carbamate], the Dmax (CDK2) was 10 to 50% and the Ki (CRBN-DDB1) was ≤ 100 nM.
For `CC1(COC(=O)NCc2ccc3c(c2)C(=O)N(C2CCC(=O)NC2=O)C3)CCOCC1` (centres unmarked) [Compound 83, (4-methyloxan-4-yl)methyl N-{[2-(2,6-dioxopiperidin-3-yl)-3-oxo-2,3-dihydro-1H-isoindol-5-yl]methyl}carbamate], the Dmax (CDK2) was ≤ 10% and the Ki (CRBN-DDB1) was 100 to 1000 nM.
For `CS(=O)(=O)N1CC(COC(=O)NCc2ccc3c(c2)C(=O)N(C2CCC(=O)NC2=O)C3)C1` (centres unmarked) [Compound 91, (1-methanesulfonylazetidin-3-yl)methyl N-{[2-(2,6-dioxopiperidin-3-yl)-3-oxo-2,3-dihydro-1H-isoindol-5-yl]methyl}carbamate], the Dmax (CDK2) was ≤ 10% and the Ki (CRBN-DDB1) was 100 to 1000 nM.
Compound `CCC1(CCCOC(=O)NCc2ccc3c(c2)C(=O)N(C2CCC(=O)NC2=O)C3)CC1` (centres unmarked) [Compound 101, 3-(1-ethylcyclopropyl)propyl ((2-(2,6-dioxopiperidin-3-yl)-3-oxoisoindolin-5-yl)methyl)carbamate] has a Dmax (CDK2) of 10 to 50% and a Ki (CRBN-DDB1) of 100 to 1000 nM.
`COc1c(CNC(=O)OCC2CC3(CCC3)C2)ccc2c1C(=O)N(C1CCC(=O)NC1=O)C2` (centres unmarked) [Compound 102, spiro[3.3]heptan-2-ylmethyl ((2-(2,6-dioxopiperidin-3-yl)-4-methoxy-3-oxoisoindolin-5-yl)methyl)carbamate] was tested, and the Dmax (CDK2) was 10 to 50% and the Ki (CRBN-DDB1) was ≤ 100 nM.
With `COc1cc(CNC(=O)OCC2CC3(CCC3)C2)cc2c1CN(C1CCC(=O)NC1=O)C2=O` (centres unmarked) [Compound 103, spiro[3.3]heptan-2-ylmethyl ((2-(2,6-dioxopiperidin-3-yl)-7-methoxy-3-oxoisoindolin-5-yl)methyl)carbamate] the Dmax (CDK2) was 10 to 50% and the Ki (CRBN-DDB1) was ≤ 100 nM.
`O=C1CCC(N2Cc3c(Cl)cc(CNC(=O)OCC4CC5(CCC5)C4)cc3C2=O)C(=O)N1` (centres unmarked) [Compound 104, spiro[3.3]heptan-2-ylmethyl ((7-chloro-2-(2,6-dioxopiperidin-3-yl)-3-oxoisoindolin-5-yl)methyl)carbamate] was tested, and the Dmax (CDK2) was 50 to 80% and the Ki (CRBN-DDB1) was ≤ 100 nM.
`Cc1cc(CNC(=O)OCC2CC3(CCC3)C2)cc2c1CN(C1CCC(=O)NC1=O)C2=O` (centres unmarked) [Compound 105, spiro[3.3]heptan-2-ylmethyl ((2-(2,6-dioxopiperidin-3-yl)-7-methyl-3-oxoisoindolin-5-yl)methyl)carbamate] was tested, and the Dmax (CDK2) was 50 to 80% and the Ki (CRBN-DDB1) was ≤ 100 nM.
For `N#Cc1cc(CNC(=O)OCC2CC3(CCC3)C2)cc2c1CN(C1CCC(=O)NC1=O)C2=O` (centres unmarked) [Compound 106, spiro[3.3]heptan-2-ylmethyl ((7-cyano-2-(2,6-dioxopiperidin-3-yl)-3-oxoisoindolin-5-yl)methyl)carbamate], the Dmax (CDK2) was 50 to 80% and the Ki (CRBN-DDB1) was 100 to 1000 nM.
Work on `O=C1CCC(N2Cc3ccc(CNC(=O)OC(c4ccccc4)C4CC5(CCC5)C4)cc3C2=O)C(=O)N1` (centres unmarked) [Compound 107, phenyl(spiro[3.3]heptan-2-yl)methyl ((2-(2,6-dioxopiperidin-3-yl)-3-oxoisoindolin-5-yl)methyl)carbamate] yielded a Dmax (CDK2) of 50 to 80% and a Ki (CRBN-DDB1) of 100 to 1000 nM.
`O=C1CCC(N2Cc3ccc(CNC(=O)OC(C4CC4)C4CC5(CCC5)C4)cc3C2=O)C(=O)N1` (centres unmarked) [Compound 108, cyclopropyl(spiro[3.3]heptan-2-yl)methyl ((2-(2,6-dioxopiperidin-3-yl)-3-oxoisoindolin-5-yl)methyl)carbamate] was tested, and the Dmax (CDK2) was 10 to 50% and the Ki (CRBN-DDB1) was 100 to 1000 nM.
Compound `O=C1CCC(N2Cc3ccc(CNC(=O)OC(Cc4ccccc4)C4CC5(CCC5)C4)cc3C2=O)C(=O)N1` (centres unmarked) [Compound 109, 2-phenyl-1-(spiro[3.3]heptan-2-yl)ethyl ((2-(2,6-dioxopiperidin-3-yl)-3-oxoisoindolin-5-yl)methyl)carbamate] has a Dmax (CDK2) of 10 to 50% and a Ki (CRBN-DDB1) of 100 to 1000 nM.
For `O=C1CCC(N2Cc3ccc(CNC(=O)OC(CC4CC4)C4CC5(CCC5)C4)cc3C2=O)C(=O)N1` (centres unmarked) [Compound 110, 2-cyclopropyl-1-(spiro[3.3]heptan-2-yl)ethyl ((2-(2,6-dioxopiperidin-3-yl)-3-oxoisoindolin-5-yl)methyl)carbamate], the Dmax (CDK2) was 10 to 50% and the Ki (CRBN-DDB1) was 100 to 1000 nM.
